Results: BindingDB's records for PubMed 34236862 (Lodz University of Technology, 2021)

Experiment: Inhibition of Rac1 GTPase in human MDA-MB-231 cells assessed as inhibition of cell proliferation treated for 72 hrs by MTT assay

Cc1cc(C)cc(NC(=N)Nc2ccccc2C(F)(F)F)c1
IC50: 21 µM
